Where two headings read alike, the source gives them in different places.
Columns and labels:
[1] = test system: pH2AX induction in HCT116 ATM-/- multicellular tumour spheroids; test: Prodrug Radiation Sensitization in Multicellular Tumour Spheroids, inhibition of pH2AX induction following radiation; format: cell-based; details: Homo sapiens, HCT-116, 20 Gy
Experimental: Prodrug compounds were assayed to determine their potency in 3D multicellular spheroids in media maintained under 20% vs 5% oxygen. Multicellular tumour spheroids were grown to approximately 0.5 mm in diameter and irradiated with 20 Gy in combination with inhibitor test compounds to determine their potency using HCT 116 and FaDu cell lines. Experiments were carried out in 96 well plates containing 0.7 mls of MEM media containing 10% FBS and 10 mM glucose under 5% CO2 at 37° C. Following dilution of compounds 1:1000 from DMSO stocks, compounds were serially diluted from 10 μM down to 3.5 nM and 5-10 spheroids added. 96 well plates were constantly stirred to avoid spheroids settling during the course of the experiment. Endpoints were pDNA-PK (ser 2056) or pH2AX (ser 139) status in spheroid cryosections taken 1 or 2 hours following radiation and fixed immediately in formalin. Using tumour cell lines deficient in ATM improved the assay signal to noise and gH2AX readout. Using this assay prodrug activity could be compared in the more oxygenated outer spheroid layers versus less oxygenated hypoxic central cell layers.

[2] = test system: FaDu cell line; test: Prodrug Activation in Hypoxic Stirred Tumour Cell Suspensions; details: 10 μM, 4 hours
[3] = target: T1, DNA-PK phosphorylation at Serine 2056 (Homo sapiens, UniProt P78527); test: Cellular Assay for Inhibition of DNA-PK Phosphorylation at Serine 2056 in FaDu cells (sandwich ELISA, neocarzinostatin); format: cell-based; details: pSer2056 DNA-PK, Table 3
T1 construct: FaDu cells were purchased from ATCC; host or cells: FaDu
Experimental: FaDu cells were purchased from ATCC and maintained in MEM alpha medium (Life Technologies, cat. no. 12561) supplemented with 10% fetal bovine serum, and 1% GlutaMAX at 37° C. supplemented with 5% CO2. 50,000 cells were seeded to each well of a 96-well cell culture plate in 50 μL of culture medium and incubated for 16-24 hours. Three-fold serially diluted compounds were prepared in DMSO. Culture media was used to prepare compound treatments to 0.3% DMSO (dimethyl sulphoxide) content. Compound treatments were added to the cells for 1 hour prior incubation, followed by the addition of neocarzinostatin in fresh culture medium to 1 μg/mL final concentration for an additional 2 hours incubation to induce DNA DSBs (double-strand breaks). DMSO controls were incubated with fresh culture medium alone for the additional two hours incubation. The cells were then lysed and frozen at −20° C. Cell lysates were thawed on wet ice and protein concentrations quantified by BCA Protein Assay (Thermo #23225). Lysis buffer was used to normalize lysates by protein content and all lysates were then investigated by sandwich ELISA by means of DNA-PK-specific antibodies (Abcam ab44815: total DNA-PK; ab124918: phosphoserine-2056 DNA-PK) in sandwich ELISA format on the MSD S600MM platform (MesoScale Discovery). % inhibition was calculated for all data points: =1−(DATA_PT−AVERAGE(DMSO controls))/(AVERAGE(NCS controls)−AVERAGE(DMSO controls)). Logarithm of the molar concentration of compound was plotted against percent inhibition to calculate IC50 values, with curve fit settings for data fit to log(inhibitor) vs. normalized response—Variable slope using curve fit software (GraphPad Prism).

[4] = 5% O2, inner layers, read-out: Prodrug 5% O2 Inner layers EC50
[5] = 5% O2, outer layers, read-out: Prodrug 5% O2 Outer layers EC50
[6] = 20% O2, outer layers, read-out: Prodrug 20% O2 Outer layers EC50

Compound	EC50 [1, 4] [nM]	EC50 [1, 5] [nM]	EC50 [1, 6] [nM]	Fraction of prodrug converted to active form, Hypoxic 0.2% O2 [2]	Fraction of prodrug converted to active form, Oxic 5% O2 [2]	IC50 [3] [nM]
Cn1c(Cn2nnc(-c3cnc4cc(N5CCOCC5)nc(O[C@H]5CC[C@@H](Nc6ncccn6)CC5)c4c3)n2)cnc1[N+](=O)[O-] [LFA121, N-[4-[[3-[2-[(3-Methyl-2-nitro-imidazol-4-yl)methyl]tetrazol-5-yl]-7-morpholino-1,6-naphthyridin-5-yl]oxy]cyclohexyl]pyrimidin-2-amine]	500 to 1000	1000 to 10000	1000 to 10000	A (A is 0.15 to 1)	B (B is 0.05 to 0.15)	–
Cn1c(Cn2nnc(-c3cnc4cc(N5CCOCC5)nc(O[C@H]5CC[C@@H](n6ccnc6)CC5)c4c3)n2)cnc1[N+](=O)[O-] [LFA123, 4-[5-(4-imidazol-1-ylcyclohexoxy)-3-[2-[(3-methyl-2-nitro-imidazol-4-yl)methyl]tetrazol-5-yl]-1,6-naphthyridin-7-yl]morpholine]	1000 to 10000	1000 to 10000	1000 to 10000	A (A is 0.15 to 1)	B (B is 0.05 to 0.15)	–
Cn1c(Cn2cnnc2-c2cnc3cc(N4CCOCC4)nc(OC4CCC(Nc5ncccn5)CC4)c3c2)cnc1[N+](=O)[O-] (stereo not shown) [LFA135, N-[4-[[3-[4-[(3-Methyl-2-nitro-imidazol-4-yl)methyl]-1,2,4-triazol-3-yl]-7-morpholino-1,6-naphthyridin-5-yl]oxy]cyclohexyl]pyrimidin-2-amine]	1000 to 10000	1000 to 10000	1000 to 10000	D (D is 0 to 0.02)	D (D is 0 to 0.02)	–
COc1cccnc1N[C@H]1CC[C@@H](Oc2nc(N3CCOCC3)cc3ncc(N(Cc4cnc([N+](=O)[O-])n4C)S(C)(=O)=O)cc23)CC1 [LFA2009, N-[5-[4-[(3-methoxy-2-pyridyl)amino]cyclohexoxy]-7-morpholino-1,6-naphthyridin-3-yl]-N-[(3-methyl-2-nitro-imidazol-4-yl)methyl]methanesulfonamide]	1000 to 10000	1000 to 10000	1000 to 10000	B (B is 0.05 to 0.15)	C (C is 0.02 to 0.05)	10000 to 30000
Cn1c(CN(c2cnc3cc(N4CCOCC4)nc(O[C@H]4CC[C@@H](Nc5ccc(F)cn5)CC4)c3c2)S(C)(=O)=O)cnc1[N+](=O)[O-] [LFA2010, N-[5-[4-[(5-fluoro-2-pyridyl)amino]cyclohexoxy]-7-morpholino-1,6-naphthyridin-3-yl]-N-[(3-methyl-2-nitro-imidazol-4-yl)methyl]methanesulfonamide]	10 to 500	500 to 1000	1000 to 10000	B (B is 0.05 to 0.15)	C (C is 0.02 to 0.05)	100 to 1000
Cc1nc(N[C@H]2CC[C@@H](Oc3nc(N4CCOCC4)cc4ncc(N(Cc5cnc([N+](=O)[O-])n5C)S(C)(=O)=O)cc34)CC2)ccc1F [LFA2011, N-[5-[4-[(5-fluoro-6-methyl-2-pyridyl)amino]cyclohexoxy]-7-morpholino-1,6-naphthyridin-3-yl]-N-[(3-methyl-2-nitro-imidazol-4-yl)methyl]methanesulfonamide]	1000 to 10000	1000 to 10000	1000 to 10000	C (C is 0.02 to 0.05)	D (D is 0 to 0.02)	10000 to 30000
CC(Oc1cnc2cc(N3CCOCC3)nc(O[C@H]3CC[C@@H](c4cnccn4)CC3)c2c1)c1cnc([N+](=O)[O-])n1C (stereo partly shown) [LFA2041, 4-[3-[1-(3-methyl-2-nitro-imidazol-4-yl)ethoxy]-5-(4-pyrazin-2-ylcyclohexoxy)-1,6-naphthyridin-7-yl]morpholine]	10 to 500	1000 to 10000	1000 to 10000	A (A is 0.15 to 1)	B (B is 0.05 to 0.15)	10000 to 30000
Cn1c(COc2cnc3cc(N4CCOCC4)nc(O[C@H]4CC[C@@H](c5cnccn5)CC4)c3c2)cnc1[N+](=O)[O-] [LFA2042, 4-[3-[(3-methyl-2-nitro-imidazol-4-yl)methoxy]-5-(4-pyrazin-2-ylcyclohexoxy)-1,6-naphthyridin-7-yl]morpholine]	10 to 500	1000 to 10000	1000 to 10000	A (A is 0.15 to 1)	C (C is 0.02 to 0.05)	10000 to 30000
CC(c1cnc([N+](=O)[O-])n1C)N(c1cnc2cc(N3CCOCC3)nc(OC3CCC(c4cnccn4)CC3)c2c1)S(C)(=O)=O (stereo not shown) [LFA2043, N-[1-(3-methyl-2-nitro-imidazol-4-yl)ethyl]-N-[7-morpholino-5-(4-pyrazin-2-ylcyclohexoxy)-1,6-naphthyridin-3-yl]methanesulfonamide]	10 to 500	500 to 1000	1000 to 10000	B (B is 0.05 to 0.15)	D (D is 0 to 0.02)	1000 to 10000
Cn1c(CN(c2cnc3cc(N4CCOCC4)nc(OC4CCC(Nc5ncc(N6CCN(CCF)CC6)cn5)CC4)c3c2)S(C)(=O)=O)cnc1[N+](=O)[O-] (stereo not shown) [LFA2044, N-[5-[4-[[5-[4-(2-fluoroethyl)piperazin-1-yl]pyrimidin-2-yl]amino]cyclohexoxy]-7-morpholino-1,6-naphthyridin-3-yl]-N-[(3-methyl-2-nitro-imidazol-4-yl)methyl]methanesulfonamide]	10 to 500	1000 to 10000	1000 to 10000	C (C is 0.02 to 0.05)	D (D is 0 to 0.02)	1000 to 10000
Cn1c(CN(c2cnc3cc(N4CCOCC4)nc(OC4CCC(Nc5ncc(N6CCN(CC(F)(F)F)CC6)cn5)CC4)c3c2)S(C)(=O)=O)cnc1[N+](=O)[O-] (stereo not shown) [LFA2045, N-[(3-methyl-2-nitro-imidazol-4-yl)methyl]-N-[7-morpholino-5-[4-[[5-[4-(2,2,2-trifluoroethyl)piperazin-1-yl]pyrimidin-2-yl]amino]cyclohexoxy]-1,6-naphthyridin-3-yl]methanesulfonamide]	1000 to 10000	1000 to 10000	1000 to 10000	D (D is 0 to 0.02)	D (D is 0 to 0.02)	10000 to 30000
CN(C)CCOc1cnc(N[C@H]2CC[C@@H](Oc3nc(N4CCOCC4)cc4ncc(O)cc34)CC2)nc1 [LFA2079, 5-[4-[[5-[2-(dimethylamino)ethoxy]pyrimidin-2-yl]amino]cyclohexoxy]-7-morpholino-1,6-naphthyridin-3-ol]	–	–	–	–	–	< 100
CN1CCN(c2cnc(N[C@H]3CC[C@@H](Oc4nc(N5CCOCC5)cc5ncc(O)cc45)CC3)nc2)CC1 [LFA2080, 5-[4-[[5-(4-methylpiperazin-1-yl)pyrimidin-2-yl]amino]cyclohexoxy]-7-morpholino-1,6-naphthyridin-3-ol]	–	–	–	–	–	< 100
Cn1c(COc2cnc3cc(N4CCOCC4)nc(O[C@H]4CC[C@@H](Nc5nccnc5C#N)CC4)c3c2)cnc1[N+](=O)[O-] [LFA2095, 3-[[4-[[3-[(3-methyl-2-nitro-imidazol-4-yl)methoxy]-7-morpholino-1,6-naphthyridin-5-yl]oxy]cyclohexyl]amino]pyrazine-2-carbonitrile]	–	–	–	–	–	10000 to 30000
CC(Oc1cnc2cc(N3CCOCC3)nc(O[C@H]3CC[C@@H](Nc4cncc(C(F)(F)F)n4)CC3)c2c1)c1cnc([N+](=O)[O-])n1C (stereo partly shown) [LFA2096, N-[4-[[3-[1-(3-methyl-2-nitro-imidazol-4-yl)ethoxy]-7-morpholino-1,6-naphthyridin-5-yl]oxy]cyclohexyl]-6-(trifluoromethyl)pyrazin-2-amine]	–	–	–	–	–	10000 to 30000
